Here are results for eight molecules from patent publication US10100097B2, “GIP-GLP-1 dual agonist compounds and methods” (Zealand Pharma A/S, priority 2012, dated 2018).

What is called EC50 is the concentration needed to bring the measured effect to its halfway point.

Numbered stars: 1 amine (or outer) side, 2 acyl side, 3 side chain; on linkers, the order of the positions; unused ones are H or OH. Square brackets hold non-standard residues; d marks the D form. Side chains are listed from the residue outwards. Peptide text beside a SMILES is read from it. * marks the point of attachment. γGlu = O=C(O)[C@H](CCC(=O)[*:2])N[*:1]; 1Nal = N[C@@H](Cc1cccc2ccccc12)C(=O)O; Palmitoyl = CCCCCCCCCCCCCCCC(=O)*; Aib = CC(C)(N)C(=O)O

In this assay the target is T1, human GLP-1 R (Homo sapiens, UniProt P43220).
T1 construct: expressed in transfected cells
T1 sequence (P43220 24-463): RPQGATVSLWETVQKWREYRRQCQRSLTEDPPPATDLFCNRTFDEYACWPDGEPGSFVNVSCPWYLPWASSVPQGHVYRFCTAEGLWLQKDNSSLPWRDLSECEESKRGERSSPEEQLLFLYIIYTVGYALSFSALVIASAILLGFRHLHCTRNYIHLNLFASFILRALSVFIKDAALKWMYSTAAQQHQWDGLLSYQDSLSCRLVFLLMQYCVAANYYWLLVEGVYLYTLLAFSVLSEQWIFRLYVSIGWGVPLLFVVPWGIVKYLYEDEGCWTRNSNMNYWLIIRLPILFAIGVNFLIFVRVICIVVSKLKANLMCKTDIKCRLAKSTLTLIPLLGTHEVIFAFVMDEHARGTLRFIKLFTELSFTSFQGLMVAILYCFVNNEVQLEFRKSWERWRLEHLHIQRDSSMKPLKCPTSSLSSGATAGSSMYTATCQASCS
As to the kind of experiment: Human GLP-1 receptor (GLP-1 R) activity assay, cAMP induction (AlphaScreen cAMP kit). Format: cell-based. To be noted: HEK293 cells expressing the human GLP-1 R, 15 min at 37° C., average values of multiple determinations, read-out: GLP1 R (EC50 in nM). Here is the method: Human GIP Receptor (GIP R) and GLP-1 Receptor (GLP-1 R) Activity Assay
In vitro effects of peptide conjugates of the invention were assessed by measuring the induction of cAMP following stimulation of the respective receptor by GIP, GLP1 or analogues of these, as outlined in the invention, using the AlphaSceen® cAMP kit from Perkin-Elmer according to instructions. Briefly. HEK293 cells expressing the human GIP R or GLP-1 R (stable cell lines generated through transfection of the cDNA for human GIP R or GLP-1 and selection of stable clones) were seeded at 30,000 cells/well in 96-well microtiter plates coated with 0.01% poly-L-lysine, and grown for 1 day in culture in 200 μl growth medium (DMEM, 10% FCS, Penicillin (100 IU/ml), Streptomycin (100 μg/ml)). On the day of analysis, growth medium was removed and the cells were washed once with […] Tyrode's buffer (Tyrode's Salts (9.6 g/1), 10 mM HEPES, pH 7.4). […] The Assay buffer was removed and cells are lysed in 80 μl Lysis buffer (0.1% w/v BSA, 5 mM HEPES, 0.3% v/v Tween-20) per well. From each well 10 μl lysed cells was transferred to a 384-well plate and mixed with 15 μl bead-mix (1 Unit/15 μl anti-cAMP Acceptor Beads, 1 Unit/15 μl Donor Beads, and 1 Unit/15 μl Biotinylated cAMP in Assay Buffer). The plates were mixed and incubated in the dark for an hour at room temperature before measuring using an Envision™ plate reader (Perkin-Elmer).
On the technique in general: Alpha assays give light when donor and acceptor beads are brought close together.
As to `CC[C@H](C)[C@H](NC(=O)[C@H](CO)NC(=O)[C@H](Cc1ccc(O)cc1)NC(=O)[C@H](CC(=O)O)NC(=O)[C@H](CO)NC(=O)[C@@H](NC(=O)[C@H](Cc1ccccc1)NC(=O)[C@@H](NC(=O)CNC(=O)[C@H](CCC(=O)O)NC(=O)C(C)(C)NC(=O)[C@@H](N)Cc1ccc(O)cc1)[C@@H](C)O)[C@@H](C)O)C(=O)N[C@@H](Cc1ccc(O)cc1)C(=O)N[C@@H](CC(C)C)C(=O)N[C@@H](CC(=O)O)C(=O)N[C@@H](CCCCN)C(=O)N[C@@H](CCCCN)C(=O)N[C@@H](C)C(=O)N[C@@H](CCC(N)=O)C(=O)N[C@@H](CCCNC(=N)N)C(=O)N[C@@H](C)C(=O)N[C@@H](Cc1ccccc1)C(=O)N[C@H](C(=O)N[C@@H](CC(N)=O)C(=O)N[C@@H](Cc1c[nH]c2ccccc12)C(=O)N[C@@H](CC(C)C)C(=O)N[C@@H](CCCCN)C(=O)N[C@@H](C)C(=O)NC(C)(C)C(=O)N[C@@H](CCCCN)C(N)=O)C(C)C` [Compound 23] (H-Y[Aib]EGTFTSDYSIYLDKKAQRAFVNWLKA[Aib]K-NH2), the EC50 is 0.012 nM.

Consider `CCCCCCCCCCCCCCCC(=O)N[C@@H](CCC(=O)NCCCC[C@H](NC(=O)[C@H](CCCCN)NC(=O)[C@H](CC(=O)O)NC(=O)[C@H](CC(C)C)NC(=O)[C@H](Cc1ccc(O)cc1)NC(=O)[C@@H](NC(=O)[C@H](CO)NC(=O)[C@H](Cc1ccc(O)cc1)NC(=O)[C@H](CC(=O)O)NC(=O)[C@H](CO)NC(=O)[C@@H](NC(=O)[C@H](Cc1ccccc1)NC(=O)[C@@H](NC(=O)CNC(=O)[C@H](CCC(=O)O)NC(=O)C(C)(C)NC(=O)[C@@H](N)Cc1ccc(O)cc1)[C@@H](C)O)[C@@H](C)O)[C@@H](C)CC)C(=O)N[C@@H](C)C(=O)N[C@@H](CCC(N)=O)C(=O)N[C@@H](CCCNC(=N)N)C(=O)N[C@@H](C)C(=O)N[C@@H](Cc1ccccc1)C(=O)N[C@H](C(=O)N[C@@H](CC(N)=O)C(=O)N[C@@H](Cc1c[nH]c2ccccc12)C(=O)N[C@@H](CC(C)C)C(=O)N[C@@H](CC(C)C)C(=O)N[C@@H](C)C(=O)NC(C)(C)C(=O)N[C@@H](CCCCN)C(=O)N1CCC[C@H]1C(=O)N[C@@H](CO)C(=O)N[C@@H](CO)C(=O)NCC(=O)N[C@@H](C)C(=O)N1CCC[C@H]1C(=O)N1CCC[C@H]1C(=O)N1CCC[C@H]1C(=O)N[C@@H](CO)C(N)=O)C(C)C)C(=O)O` [Compound 35], for which the EC50 came to 0.022 nM.

Turning to `CC[C@H](C)[C@H](NC(=O)[C@H](CO)NC(=O)[C@H](Cc1ccc(O)cc1)NC(=O)[C@H](CC(=O)O)NC(=O)[C@H](CO)NC(=O)[C@@H](NC(=O)[C@H](Cc1ccccc1)NC(=O)[C@@H](NC(=O)CNC(=O)[C@H](CCC(=O)O)NC(=O)C(C)(C)NC(=O)[C@@H](N)Cc1ccc(O)cc1)[C@@H](C)O)[C@@H](C)O)C(=O)N[C@@H](Cc1ccc(O)cc1)C(=O)N[C@@H](CC(C)C)C(=O)N[C@@H](CCC(=O)O)C(=O)N[C@@H](CCCCN)C(=O)N[C@@H](CCCCN)C(=O)N[C@@H](C)C(=O)N[C@@H](CCC(N)=O)C(=O)N[C@@H](CCCNC(=N)N)C(=O)N[C@@H](C)C(=O)N[C@@H](Cc1ccccc1)C(=O)N[C@H](C(=O)N[C@@H](CC(N)=O)C(=O)N[C@@H](Cc1c[nH]c2ccccc12)C(=O)N[C@@H](CC(C)C)C(=O)N[C@@H](CC(C)C)C(=O)N[C@@H](C)C(=O)NC(C)(C)C(=O)N[C@@H](CCCCN)C(N)=O)C(C)C` [Compound 14] (H-Y[Aib]EGTFTSDYSIYLEKKAQRAFVNWLLA[Aib]K-NH2), the EC50 was 0.0087 nM.

Turning to `CCCCCCCCCCCCCCCC(=O)N[C@@H](CCC(=O)NCCCC[C@H](NC(=O)[C@H](CCC(=O)O)NC(=O)[C@H](CC(=O)O)NC(=O)[C@H](CC(C)C)NC(=O)[C@H](Cc1ccc(O)cc1)NC(=O)[C@@H](NC(=O)[C@H](CO)NC(=O)[C@H](Cc1ccc(O)cc1)NC(=O)[C@H](CC(=O)O)NC(=O)[C@H](CO)NC(=O)[C@@H](NC(=O)[C@H](Cc1ccccc1)NC(=O)[C@@H](NC(=O)CNC(=O)[C@H](CCC(=O)O)NC(=O)C(C)(C)NC(=O)[C@@H](N)Cc1ccc(O)cc1)[C@@H](C)O)[C@@H](C)O)[C@@H](C)CC)C(=O)N[C@@H](C)C(=O)N[C@@H](C)C(=O)N[C@@H](CCCCN)C(=O)N[C@@H](CC(=O)O)C(=O)N[C@@H](Cc1ccccc1)C(=O)N[C@H](C(=O)N[C@@H](CCC(=O)O)C(=O)N[C@@H](Cc1c[nH]c2ccccc12)C(=O)N[C@@H](CC(C)C)C(=O)N[C@@H](CCC(=O)O)C(=O)N[C@@H](CO)C(=O)N[C@@H](C)C(N)=O)C(C)C)C(=O)O` [Compound 48] (H-Y[Aib]EGTFTSDYSIYLDEK([γGlu-Palmitoyl])AAKDFVEWLESA-NH2), the concentration giving a half-maximal response (EC50) worked out at 0.041 nM.

Turning to `CCCCCCCCCCCCCCCC(=O)N[C@@H](CCC(=O)NCCCC[C@H](NC(=O)[C@H](CCC(=O)O)NC(=O)[C@H](CC(=O)O)NC(=O)[C@H](CC(C)C)NC(=O)[C@H](Cc1ccc(O)cc1)NC(=O)[C@@H](NC(=O)[C@H](CO)NC(=O)[C@H](Cc1ccc(O)cc1)NC(=O)[C@H](CC(=O)O)NC(=O)[C@H](CO)NC(=O)[C@@H](NC(=O)[C@H](Cc1ccccc1)NC(=O)[C@@H](NC(=O)CNC(=O)[C@H](CCC(=O)O)NC(=O)C(C)(C)NC(=O)[C@@H](N)Cc1ccc(O)cc1)[C@@H](C)O)[C@@H](C)O)[C@@H](C)CC)C(=O)N[C@@H](C)C(=O)N[C@@H](C)C(=O)N[C@@H](CCCCN)C(=O)N[C@@H](CCC(=O)O)C(=O)N[C@@H](Cc1ccccc1)C(=O)N[C@H](C(=O)N[C@@H](CCC(=O)O)C(=O)N[C@@H](Cc1c[nH]c2ccccc12)C(=O)N[C@@H](CC(C)C)C(=O)N[C@@H](CCC(=O)O)C(=O)N[C@@H](CO)C(=O)N[C@@H](C)C(N)=O)[C@@H](C)CC)C(=O)O` [Compound 34] (H-Y[Aib]EGTFTSDYSIYLDEK([γGlu-Palmitoyl])AAKEFIEWLESA-NH2), the EC50 came to 0.031 nM.

Take `CC[C@H](C)[C@H](NC(=O)[C@H](CO)NC(=O)[C@H](Cc1ccc(O)cc1)NC(=O)[C@H](CC(=O)O)NC(=O)[C@H](CO)NC(=O)[C@@H](NC(=O)[C@H](Cc1ccccc1)NC(=O)[C@@H](NC(=O)CNC(=O)[C@H](CCC(=O)O)NC(=O)C(C)(C)NC(=O)[C@@H](N)Cc1ccc(O)cc1)[C@@H](C)O)[C@@H](C)O)C(=O)N[C@@H](Cc1ccc(O)cc1)C(=O)N[C@@H](CC(C)C)C(=O)N[C@@H](CC(=O)O)C(=O)N[C@@H](CCCCN)C(=O)N[C@@H](CCCCN)C(=O)N[C@@H](C)C(=O)N[C@@H](CCC(N)=O)C(=O)N[C@@H](CCCNC(=N)N)C(=O)N[C@@H](C)C(=O)N[C@@H](Cc1ccccc1)C(=O)N[C@H](C(=O)N[C@@H](CC(N)=O)C(=O)N[C@@H](Cc1c[nH]c2ccccc12)C(=O)N[C@@H](CC(C)C)C(=O)N[C@@H](CC(C)C)C(=O)N[C@@H](C)C(=O)NC(C)(C)C(=O)N[C@@H](CCCCN)C(=O)N[C@@H](Cc1ccc(O)cc1)C(=O)NCC(=O)N[C@@H](Cc1cccc2ccccc12)C(=O)N[C@@H](CC(C)C)C(=O)N[C@@H](CC(=O)O)C(=O)N[C@@H](Cc1ccccc1)C(N)=O)C(C)C` [Compound 25] (H-Y[Aib]EGTFTSDYSIYLDKKAQRAFVNWLLA[Aib]KYG[1Nal]LDF-NH2): the 50% effective concentration (EC50) was 0.041 nM.

With `CC[C@H](C)[C@H](NC(=O)[C@H](CO)NC(=O)[C@H](Cc1ccc(O)cc1)NC(=O)[C@H](CC(=O)O)NC(=O)[C@H](CO)NC(=O)[C@@H](NC(=O)[C@H](Cc1ccccc1)NC(=O)[C@@H](NC(=O)CNC(=O)[C@H](CCC(=O)O)NC(=O)C(C)(C)NC(=O)[C@@H](N)Cc1ccc(O)cc1)[C@@H](C)O)[C@@H](C)O)C(=O)N[C@@H](Cc1ccc(O)cc1)C(=O)N[C@@H](CC(C)C)C(=O)N[C@@H](CCC(=O)O)C(=O)N[C@@H](CCCCN)C(=O)N[C@@H](CCCCN)C(=O)N[C@@H](C)C(=O)N[C@@H](CCC(N)=O)C(=O)N[C@@H](CCCCN)C(=O)N[C@@H](CCC(=O)O)C(=O)N[C@@H](Cc1ccccc1)C(=O)N[C@H](C(=O)N[C@@H](CCC(=O)O)C(=O)N[C@@H](Cc1c[nH]c2ccccc12)C(=O)N[C@@H](CC(C)C)C(=O)N[C@@H](CC(C)C)C(=O)N[C@@H](CO)C(=O)N[C@@H](C)C(N)=O)C(C)C` [Compound 39] (H-Y[Aib]EGTFTSDYSIYLEKKAQKEFVEWLLSA-NH2), the EC50 came to 0.011 nM.

In the case of `CC[C@H](C)[C@H](NC(=O)[C@H](CO)NC(=O)[C@H](Cc1ccc(O)cc1)NC(=O)[C@H](CC(=O)O)NC(=O)[C@H](CO)NC(=O)[C@@H](NC(=O)[C@H](Cc1ccccc1)NC(=O)[C@@H](NC(=O)CNC(=O)[C@H](CCC(=O)O)NC(=O)C(C)(C)NC(=O)[C@@H](N)Cc1ccc(O)cc1)[C@@H](C)O)[C@@H](C)O)C(=O)N[C@@H](Cc1ccc(O)cc1)C(=O)N[C@@H](CC(C)C)C(=O)N[C@@H](CC(=O)O)C(=O)N[C@@H](CO)C(=O)N[C@@H](CCCCN)C(=O)N[C@@H](C)C(=O)N[C@@H](C)C(=O)N[C@@H](Cc1c[nH]cn1)C(=O)N[C@@H](CC(=O)O)C(=O)N[C@@H](Cc1ccccc1)C(=O)N[C@H](C(=O)N[C@@H](CCC(=O)O)C(=O)N[C@@H](Cc1c[nH]c2ccccc12)C(=O)N[C@@H](CC(C)C)C(=O)N[C@@H](CC(C)C)C(=O)N[C@@H](CO)C(=O)N[C@@H](C)C(=O)NCC(=O)N1CCC[C@H]1C(=O)N[C@@H](CO)C(=O)N[C@@H](CO)C(=O)NCC(=O)N[C@@H](C)C(=O)N1CCC[C@H]1C(=O)N1CCC[C@H]1C(=O)N1CCC[C@H]1C(=O)N[C@@H](CO)C(N)=O)C(C)C` [Compound 55] (H-Y[Aib]EGTFTSDYSIYLDSKAAHDFVEWLLSAGPSSGAPPPS-NH2), the concentration giving a half-maximal response (EC50) amounted to 0.0087 nM.
